Data published in BigSolDB 2.1.

N[C@@H](Cc1ccc([N+](=O)[O-])cc1[N+](=O)[O-])C(=O)O
solubility (mole fraction)
Conditions | in 1,2-dichloroethane | in acetone | in ethanol | in ethyl acetate | in isopropanol | in methanol | in n-butanol | in n-propanol | in sec-butanol | in water
273.15 K | 2.2e-09 | 1.58e-06 | 3.44e-05 | – | 1.51e-06 | 1.5e-05 | 3.84e-06 | 2.58e-06 | 6.49e-07 | 8.5e-08
278.15 K | – | 1.64e-06 | – | – | 2.96e-06 | 4.12e-05 | – | – | – | –
283.15 K | 8.6e-09 | 1.72e-06 | 9.2e-05 | – | 5.45e-06 | 9.1e-05 | 3.91e-06 | 3.54e-06 | 6.79e-07 | 1.12e-06
288.15 K | – | 1.91e-06 | – | – | 9.49e-06 | 0.000192 | – | – | – | –
293.15 K | 3.08e-08 | 2.15e-06 | 0.000195 | – | 1.56e-05 | 0.000365 | 3.99e-06 | 5.64e-06 | 6.92e-07 | 9.26e-06
298.15 K | – | 2.56e-06 | – | – | 2.42e-05 | 0.000578 | – | – | – | –
303.15 K | 1.05e-07 | 3.06e-06 | 0.00035 | 9.1e-09 | 3.57e-05 | 0.000909 | 4.28e-06 | 1.01e-05 | 7.79e-07 | 5.12e-05
308.15 K | – | 3.99e-06 | – | – | 5.03e-05 | 0.00123 | – | – | – | –
313.15 K | 3.27e-07 | 5.26e-06 | 0.00051 | 1.88e-07 | 6.78e-05 | 0.00155 | 5.01e-06 | 2.04e-05 | 9.45e-07 | 0.000189
318.15 K | – | 7.14e-06 | – | – | 8.75e-05 | 0.00181 | – | – | – | –
323.15 K | 9.77e-07 | 1.01e-05 | 0.000671 | 1.88e-06 | 0.000109 | 0.00196 | 6.29e-06 | 4.55e-05 | 1.23e-06 | 0.000523
328.15 K | – | 1.45e-05 | – | – | 0.00013 | 0.00197 | – | – | – | –
333.15 K | 2.69e-06 | 2.19e-05 | 0.000772 | 1.12e-05 | 0.00015 | 0.00198 | 8.34e-06 | 0.000113 | 1.71e-06 | 0.00107
338.15 K | – | – | – | – | 0.000167 | – | – | – | – | –
343.15 K | – | – | 0.00079 | 3.58e-05 | – | – | 1.15e-05 | 0.000294 | 2.49e-06 | 0.00166
348.15 K | – | – | – | 5.44e-05 | – | – | – | – | – | –
353.15 K | – | – | 0.000791 | – | – | – | 1.69e-05 | 0.000812 | 3.87e-06 | 0.00193
363.15 K | – | – | – | – | – | – | 2.6e-05 | 0.00241 | 6.11e-06 | 0.00198
368.15 K | – | – | – | – | – | – | – | 0.00424 | – | 0.00201
